Assay results: publication PMC11660961, “Leucinostatins target Plasmodium mitochondria to block malaria transmission” (Parasites & Vectors, 2024)
pIC50: −log10 of the molar value. “Also recorded” adds a separate entry of the source. *1 amine or outer side, *2 acyl side, *3 side chain or, on linkers, in order; H or OH if unused. Where a SMILES comes first, the peptide text is derived from it. [ ]: non-standard residue; d: D form. The star is where a group is joined. X3 = C[C@@H](CN(C)C(=O)CCCCCNC(=O)CCCC[C@@H]1SC[C@@H]2NC(=O)N[C@@H]21)N*; X2 = C[C@@H](CN(C)C(=O)CCC[n+]1c2cc(N(C)C)ccc2cc2ccc(N(C)C)cc21)N*; X1 = CCC(=O)C[C@H](O)C[C@@H](C)C[C@H](N[*:1])C(=O)[*:2]; Hexenoyl(2E,4S-Me) = CC[C@H](C)/C=C/C(=O)*; Leu(3R-OH) = CC(C)[C@@H](O)[C@H](N)C(=O)O; NH((S)CH(Me)CH2NMe2) = C[C@@H](CN(C)C)N*; Pro(4S-Me) = C[C@@H]1CN[C@H](C(=O)O)C1; NH((S)CH(CH3)CH2NHMe) = CNC[C@H](C)N*; Aib = CC(C)(N)C(=O)O; βAla = NCCC(=O)O

Assays:
[1] = Cytotoxicity assay, MTT, HEK293; type: cell-based, human; conditions: 24 h incubation at 37 °C, three replicates
Method: (§1) Two methods and two types of cells were used to analyze the general cytotoxicity of small molecules. First, MTT (3-(4,5-dimethylthiazol-2-yl)-2,5-diphenyl tetrazolium bromide; Thermo-fisher) and human embryonic kidney 293 (HEK293) were used in cytotoxicity assays. About 20,000 HEK293 cells in 200 µl of culture medium [Dulbecco’s modified eagle medium (DMEM) with high glutamine and 10% fetal bovine serum] were seeded per well in 96-well microplates. About 1 µl of the compounds in DMSO at various dilutions was added into each well to obtain final concentrations of 0, 10, 100, and 1000 ng/mL. Three replicates were conducted for each concentration. Following incubation at 37 °C with 5% CO2 for 24 h, 10 µL of MTT (5 mg/mL in PBS) was added to each well and incubated for 4 h at 37 °C with 5% CO2. All but 25 µL of the medium was removed from the wells, and 100 µL of DMSO was added to each well and incubated at 37 °C for 10 min to dissolve formazan crystals for measurement. Optical density was measured at an absorbance wavelength of 540 nm.

[2] = tested on: human embryonic kidney 293 (HEK293) cells; assay: Cytotoxicity assay, MTT, HEK293; type: cell-based
Method: as §1

[3] = tested on: mice; set-up: method as in 2 sources, ref 9 = [9]; PMID 4783199; doi:10.7164/antibiotics.26.157; 9. Arai T Mikami Y Fukushima K Utsumi T Yazawa K A new antibiotic, leucinostatin, derived from Penicillium lilacinum J Antibiot (Tokyo) 1973 26 157 161 10.7164/antibiotics.26.157 4783199 Arai T, Mikam ||| ref 10 (Mikami et al.); conditions: intraperitoneal injection; cited from earlier work
[4] = tested on: K562 cell line (human immortalized myelogenous leukemia cell); assay: Cell proliferation assay, CCK-8 kit, K562; type: cell-based
Method: Second, the CCK-8 kit (Sigma) and K562 cell line (human immortalized myelogenous leukemia cell) were used to determine the inhibition of a compound against cell proliferation. About 20,000 cells in 200 µl of culture medium (RMPI-1640 with 10% fetal bovine serum) were seeded per well in 96-well microplates, and then a series of dilutions of the compound from 0 to 1000 ng/ml was added to the medium. The cells were maintained at 37 °C and 5% CO2 for 48 h, and then 20 μl of the CCK-8 solution was added to each well of the plate. The plate was incubated for 1 h, and the A450 was measured using a microplate.

[5] = Reverse-phase C18 HPLC elution time as measure of hydrophobicity; type: physicochemical; conditions: chromatographic; semi-prep C18 column (Gemini 5 μm 110A, 250 × 10 mm), gradient 50% methanol to 100% methanol in 50 min, 1 ml per min, A254; approximate time
Method: LA and LB were purified from P. lilacum as described. LA/LB mixture (Sigma) was also purchased from Sigma. LB C-terminus were modified by linking biotin and Atto495. Around 0.4 µmol of LB and 8 µmol of amine-reactive EZ-Link™ NHS-LC-Biotin (Invitrogen; molar ratio: 1:20) were mixed in 2 mL of PBS buffer (pH = 7.2) and reacted for continuous stirring 4 h at room temperature. Then, the reaction sample was analyzed and purified by semi-prep high-performance liquid chromatography (HPLC; Shimadzu) C18 column (Gemini 5 μm 110A, 250 × 10 mm) with gradient elution of 50% methanol to 100% methanol in 50 min. The flow rate was 1 ml per min. The LB-biotin conjugate fraction was dried at room temperature with a rotary vacuum evaporator (Heidolph).
The reaction of LB with amine-reactive Atto495 NHS ester (Sigma) was conducted in DMSO. Firstly, Atto495 NHS ester (3 mM), LB (1 mM), and triethylamine (100 mM) were mixed in DMSO in a 0.2 mL reaction volume and reacted at room temperature for 4 h with continuous stirring while protected from light. The reaction solution was applied to semi-prep HPLC to obtain the conjugate of LB-Atto495 as described above, and the LB-Atto495 was dried for use.
The pure LB was reacted with amine-reactive Atto495 NHS ester in DMSO. The reaction solution was applied to semi-prep HPLC. The conjugate of LB-Atto495 was eluded at 29 min (Fig. 2b). […] On the basis of elution times from the HPLC C18 column, the hydrophobicity of four compounds is LB < LA < LB-Atto495 < LB-biotin.

[6] = tested on: Hela cells; conditions: read-out: IC50 against Hela cells; cited from earlier work
Method: Leucinostatins have antimicrobial activity against gram-positive bacteria, including Staphylococcus albus, Bacillus subtilis, Sarcina letter, Streptococcus pyrogens, Streptococcus faecalis, and Mycobacterium species, with IC50 values ranging from 2.5 to 100 μM and against some fungal strains with minimal inhibitory concentrations of 10–25 μM [9–11]. In addition, leucinostatins are known as mycotoxins. The IC50 of leucinostatin Α (LA) to MRC-5 (human fetal lung fibroblast cells) is 2 μΜ [12]. […] The IC50 of LA against H ...

[7] = tested on: O+ human red blood cells; assay: Hemolysis assay; type: cell-based; conditions: 100 µM, 10% human RBC suspension in PBS pH 7.4, 3 h at 37 °C, A540, triplicate, p > 0.9
Method: About 200 µL of O + human red blood cells were washed three times in PBS (pH 7.4) and then suspended with 1 ml of PBS. Then, 0.3 ml of suspension was diluted with 3 mL of PBS to obtain a 10% suspension. All tested compounds were dissolved in DMSO to prepare a series of dilutions of 1 nM, 10 nM, 100 nM, 1 µM, 10 µM, and 100 µM. The erythrocyte suspension (100 μl per well) was added to a 96-well plate, and the samples were rapidly stirred and incubated at 37 °C with periodic stirring during a 3-h incubation period. The solution was then centrifuged at 2,000 rpm for 5 min. The absorbance of the supernatant was measured at 540 nm using a microplate, and the hemolytic ratio (%) was calculated by comparison with the 100% hemolytic activity caused by distilled water as maximal hemolytic control. The hemolytic % developed by the PBS control was subtracted from all groups. Each experiment was performed in triplicate.

[8] = tested on: P. falciparum transmission to mosquitoes; assay: Standard membrane feeding assay (SMFA), malaria transmission-blocking activity; type: in vivo, Plasmodium falciparum (NF54) in Anopheles gambiae (G3); conditions: same set of cultured parasites and mosquitoes, Fig. 3d
Method: As we described previously, we maintained An. gambiae (G3 strain) at 27 °C with 80% humidity and a 12 h day/night cycle. Larvae were fed fish food for koi, adult mosquitoes were maintained with 10% sugar in water, and female mosquitoes were fed with purchased human blood to lay eggs. Eggs were collected 48 h after blood-feeding with wet filter papers and hatched in pure water.
P. falciparum (NF54) was cultured in the lab with 4% O + -type red blood cells in a complete Roswell Park Memorial Institute (RPMI) 1640 medium with 10% human AB + serum and 12.5 μg/ml of hypoxanthine in a candle jar at 37 °C. Then, 15-day-old cultured P. falciparum-infected cells were collected through centrifugation (300 g for 3 min), and about 100 μl of pellet were resuspended in 1.5 ml fresh AB + -type serum and mixed with 1.4 ml O + -type red blood cells, containing about 0.2% stage V gametocytes. Each candidate compound was dissolved in dimethylsulfoxide (DMSO) and diluted with DMSO to obtain different concentrations. About 2 μl of candidate solution was mixed with 298 μl of P. falciparum-infected blood prepared above and was used to feed 60–80 3–5-day-old An. gambiae with feeders covered with parafilm at 37 °C for 30 min. […] The midguts were stained with 0.1% mercury dibromofluorescein disodium salt in phosphate-buffered saline (PBS), and the oocysts were counted under a light microscope.

[9] = tested on: P. falciparum gametocytes; assay: Distribution of LB-Atto495 in live gametocytes by fluorescence microscopy; type: cell-based, Plasmodium falciparum; conditions: LB-Atto495 (1 µl of 1 mM in 100 µl) incubated 6 h at room temperature, fluorescent microscope
Method: The 15-day-old cultured P. falciparum was collected from a six-well plate. After centrifugation (300 g for 3 min), the cells were washed with 1 ml of PBS three times at room temperature. About 10 μl of cells was suspended in 100 μl of PBS, and 1 μl of LB-Atto495 (1 mM in DMSO) was added and mixed. The cells were incubated at room temperature in the dark for 6 h. The mixture was centrifuged at 300 g for 3 min to collect cells, which were washed three times with 200 μl of PBS. Finally, the cells were deposited on slides to make a blood smear and fixed with methanol. The vector shield antifade mounting medium for fluorescence (VectorLabs, CA) was dropped on the slides. The slides were covered with coverslips and examined under a fluorescent microscope (Nikon Eclipse Ti-S).

For `CCC(=O)C[C@H](O)C[C@@H](C)C[C@H](NC(=O)[C@@H]1C[C@H](C)CN1C(=O)/C=C/[C@@H](C)CC)C(=O)N[C@H](C(=O)NC(C)(C)C(=O)N[C@@H](CC(C)C)C(=O)N[C@@H](CC(C)C)C(=O)NC(C)(C)C(=O)NC(C)(C)C(=O)NCCC(=O)N[C@@H](C)CN(C)C)[C@H](O)C(C)C` [LA, leucinostatin A] ({Hexenoyl(2E,4S-Me)}-[Pro(4S-Me)][X1][Leu(3R-OH)][Aib]LL[Aib][Aib][βAla]-{NH((S)CH(Me)CH2NMe2)}), the pIC50 [1] was 7.05, the “Density of living cells versus 0 control, HEK293” value ([2]; 10 ng/mL, p > 0.7) was “no significant difference” and the “Reduction of cell proliferation, HEK293” value ([2]; 100 nM, 24 h) was 38%. The LD50 [3] was 1.6 mg/kg, the “Density of living cells versus 0 control, K562” value ([4]; 10 ng/mL, CCK-8, p > 0.6) was “no significant difference” and the “Reduction of cell proliferation, K562” value ([4]; 100 nM, CCK-8, 48 h) was 43.7%. The “HPLC elution time (hydrophobicity)” value [5] was about 28.3 min, the pIC50 [6] was about 7.40 and the “Hemolysis of red blood cells” value [7] was “not significantly different”. For the same compound, the “Hemolysis of red blood cells” value ([7]; listed as leucinostatin A) was “did not lyse erythrocytes”.

For `CCC(=O)C[C@H](O)C[C@@H](C)C[C@H](NC(=O)[C@@H]1C[C@H](C)CN1C(=O)/C=C/[C@@H](C)CC)C(=O)N[C@H](C(=O)NC(C)(C)C(=O)N[C@@H](CC(C)C)C(=O)N[C@@H](CC(C)C)C(=O)NC(C)(C)C(=O)NC(C)(C)C(=O)NCCC(=O)N[C@@H](C)CNC)[C@H](O)C(C)C` [LB, leucinostatin B] ({Hexenoyl(2E,4S-Me)}-[Pro(4S-Me)][X1][Leu(3R-OH)][Aib]LL[Aib][Aib][βAla]-{NH((S)CH(CH3)CH2NHMe)}), the “HPLC elution time (hydrophobicity)” value [5] was about 27.5 min and the “Blocking of P. falciparum transmission to mosquitoes at 10 nM” value [8] was “completely blocked”.

With `CCC(=O)C[C@H](O)C[C@@H](C)C[C@H](NC(=O)[C@@H]1C[C@H](C)CN1C(=O)/C=C/[C@@H](C)CC)C(=O)N[C@H](C(=O)NC(C)(C)C(=O)N[C@@H](CC(C)C)C(=O)N[C@@H](CC(C)C)C(=O)NC(C)(C)C(=O)NC(C)(C)C(=O)NCCC(=O)N[C@@H](C)CN(C)C(=O)CCC[n+]1c2cc(N(C)C)ccc2cc2ccc(N(C)C)cc21)[C@H](O)C(C)C` [LB-Atto495] ({Hexenoyl(2E,4S-Me)}-[Pro(4S-Me)][X1][Leu(3R-OH)][Aib]LL[Aib][Aib][βAla]-X2) the “Location in live P. falciparum gametocytes” value [9] was “colocalized with mitochondria; also recorded: binds mitochondria specifically in parasites” and the “HPLC elution time (hydrophobicity)” value [5] was 29 min.

With `CCC(=O)C[C@H](O)C[C@@H](C)C[C@H](NC(=O)[C@@H]1C[C@H](C)CN1C(=O)/C=C/[C@@H](C)CC)C(=O)N[C@H](C(=O)NC(C)(C)C(=O)N[C@@H](CC(C)C)C(=O)N[C@@H](CC(C)C)C(=O)NC(C)(C)C(=O)NC(C)(C)C(=O)NCCC(=O)N[C@@H](C)CN(C)C(=O)CCCCCNC(=O)CCCC[C@@H]1SC[C@@H]2NC(=O)N[C@@H]21)[C@H](O)C(C)C` [LB-biotin] ({Hexenoyl(2E,4S-Me)}-[Pro(4S-Me)][X1][Leu(3R-OH)][Aib]LL[Aib][Aib][βAla]-X3) the “HPLC elution time (hydrophobicity)” value [5] was about 31.5 min and the “Blocking of P. falciparum transmission to mosquitoes at 10 nM” value [8] was “did not inhibit”.

With `O=C(CCCC[C@@H]1SC[C@@H]2NC(=O)N[C@@H]21)NCCCCCC(=O)ON1C(=O)CC(S(=O)(=O)[O-])C1=O.[Na+]` (some centres unmarked) [sulfo-NHS-LC-Biotin] the “HPLC elution time (hydrophobicity)” value [5] was about 16.5 min.
